# Assay results reported in patent publication US5068354A, “Epoxysuccinic acid derivatives” (Taisho Pharmaceutical Co., Ltd., priority 1989, dated 1991).
# Assays:
# Assay type in all cases: biochemical
# CANP (μCANP, Calpain I) = biological target: T1, CANP (μCANP, Calpain I) (Homo sapiens, UniProt P07384); assay: Inhibitory Activity against CANP; conditions: alkali-denatured casein, pH 7.5, preincubated 30° C. 5 min, incubation 20 min, read-out: concentration of the test drug required for 50% inhibition (IC50)
# T1 construct: purchased Nacalai Tesque Inc
# T1 sequence (P07384 1-714): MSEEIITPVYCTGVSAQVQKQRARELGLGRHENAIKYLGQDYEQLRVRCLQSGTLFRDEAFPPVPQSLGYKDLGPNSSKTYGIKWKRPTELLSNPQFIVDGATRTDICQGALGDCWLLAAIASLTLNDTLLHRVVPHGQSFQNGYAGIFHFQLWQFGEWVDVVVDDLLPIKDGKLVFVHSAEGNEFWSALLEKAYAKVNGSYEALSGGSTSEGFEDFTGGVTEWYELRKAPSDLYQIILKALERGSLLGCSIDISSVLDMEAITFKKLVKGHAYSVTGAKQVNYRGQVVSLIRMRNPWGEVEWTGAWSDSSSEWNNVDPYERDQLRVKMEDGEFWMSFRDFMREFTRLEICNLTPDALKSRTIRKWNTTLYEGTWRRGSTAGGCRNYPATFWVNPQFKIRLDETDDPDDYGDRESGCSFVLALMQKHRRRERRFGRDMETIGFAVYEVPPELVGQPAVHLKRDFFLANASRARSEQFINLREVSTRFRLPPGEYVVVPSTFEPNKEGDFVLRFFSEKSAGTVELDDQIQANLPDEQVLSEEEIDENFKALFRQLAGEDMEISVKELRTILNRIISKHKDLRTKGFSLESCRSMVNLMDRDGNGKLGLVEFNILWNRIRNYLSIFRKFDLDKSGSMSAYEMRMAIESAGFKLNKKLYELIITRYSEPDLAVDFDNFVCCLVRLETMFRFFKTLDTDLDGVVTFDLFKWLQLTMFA
# T1 sequence (P04632 1-268 partner): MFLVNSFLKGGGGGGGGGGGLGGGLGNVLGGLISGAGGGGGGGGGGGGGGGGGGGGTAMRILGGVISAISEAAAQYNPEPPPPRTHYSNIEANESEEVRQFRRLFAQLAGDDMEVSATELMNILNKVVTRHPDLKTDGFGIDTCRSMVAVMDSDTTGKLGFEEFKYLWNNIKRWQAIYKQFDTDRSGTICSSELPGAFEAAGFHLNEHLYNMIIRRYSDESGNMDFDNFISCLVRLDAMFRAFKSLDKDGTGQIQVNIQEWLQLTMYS
# Procedure: Test example 1 [Inhibitory Activity against CANP]
# The activity was measured according to the method of S. Ishiura et al [J. Biochem., vol. 84, page 225 (1978)].
# Each of 0.45 ml of the reaction solutions containing 25 mM 2-mercaptoethanol, 5 mM calcium chloride, 0.1 M sodium glycerophosphate-HCl (pH 7.5), 0.24% alkali-denatured casein, 1% dimethyl sulfoxide and various concentrations of the test drug was preincubated at 30° C. for 5 minutes, and 5 μg of μCANP (50 μg) (Calpain I, Nacalai Tesque Inc.) was added or starting the reaction. After incubation at 30° C. for 20 minutes, the reaction was stopped by addition of 0.5 ml of 10% trichloroacetic acid. After allowing to stand at room temperature for 60 minutes, the mixture was centrifuged at 3000×g for 5 minutes, and the absorbance at 280 nm of the supernatant was determined. The remaining activity was obtained by reducing the blank value which was obtained in a similar manner to the above but adding 10% trichloroacetic acid prior to addition of μCANP from the above value. The concentration of the test drug required for 50% inhibition (IC50) was calculated from the inhibition rate obtained using the value which was measured in a similar manner to the above but without the test drug. The IC50 value of the compound obtained in Example 5 was more than 200,000 nM.
# cathepsin B = assay: Inhibitory Activity against Cathepsin B; conditions: pH 6.0, preincubated 40° C. 10 min, incubation 10 min
# Procedure: The activity was measured according to the method of A.J. Barrett et al [Biochem. J., vol.
# To each of 0.95 ml of the reaction solutions containing 2.5 mM 2-mercaptoethanol, 1 mM disodium ethylenediaminetetraacetate, 0.1 M sodium potassium phosphate buffer (pH 6.0), 0.1% brij-35 (Nacalai Tesque Inc.), 1% dimethyl sulfoxide and different concentrations of the test drug was added 25 μl of 200 nM cathepsin B solution (Sigma Chemical Co.), and the mixture was preincubated for 40° C. for 10 minutes, after which 25 μl of 200 µM benzyloxycarbonyl L-phenylaranyl-L-arginine 4-methylcoumaryl-7-amide (Peptide Institute Inc.) was added for starting the reaction. After incubation at 40° C. for 10 minutes, the reaction was stopped by addition of 1 ml of 100 mM sodium chloroacetate in 100 mM sodium acetate (pH 4.3) The fluorescence of the liberated 7-amino-4-methylcoumarine was determined using a Shimazu fluorimeter RP-5000 with excitation at 380 n and emission measured at 440 nm. […] Chosen as a comparative drug is N-(L-3-trans-carboxy-oxirane-2-carbonyl)-L-isoleucyl-L-proline methyl ester which is included within the structural formula of the above U.K. Patent and is the closest compound to the compound of formula I in the structure.
# papain = biological target: T2, papain (Carica papaya, UniProt P00784); assay: Inhibitory Activity against Papain; conditions: pH 6.8, preincubated 40° C. 3 min, incubation 10 min, read-out: concentration of the test drug required for 50% inhibition (IC50)
# T2 construct: purchased Sigma Chemical Co
# T2 sequence (P00784 134-345): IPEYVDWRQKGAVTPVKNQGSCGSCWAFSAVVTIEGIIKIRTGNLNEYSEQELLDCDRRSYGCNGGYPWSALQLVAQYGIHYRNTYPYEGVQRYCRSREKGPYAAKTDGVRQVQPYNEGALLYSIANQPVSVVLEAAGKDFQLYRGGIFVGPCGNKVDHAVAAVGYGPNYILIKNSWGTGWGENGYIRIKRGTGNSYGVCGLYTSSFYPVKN
# Procedure: Test example 2 [Inhibitory Activity against Papain]
# The activity was measured according to the method of A.J. Barrett et al [Biochem. J., vol. 201, page 189, (1982)].
# To each of 0.95 ml of the reaction solutions containing 2.5 mM 2-mercaptoethanol, 1 mM disodium ethylenediaminetetraacetate, 0.1 M sodium potassium phosphate (pH 6.8), 0.1% brij-35 (Nacalai Tesque Inc.), 1% dimethyl sulfoxide and the various concentrations of the test drug was added 25 μl of 400 nM papain solution (Sigma Chemical Co.), and the mixture was preincubated for 40° C. for 3 minutes, after which 25 μof 200 μM benzyloxycarbonyl-L-phenylaranyl-L-arginine 4-methyl-coumaryl-7-amide (Peptide Institute Inc.) was added for starting the reaction. After incubation at 40° C. for 10 minutes, the reaction was stopped by addition of 1 ml of 100 mM sodium chloroacetate in 100 mM sodium acetate (pH 4.3). The fluorescence of the liberated 7-amino-4-methylcoumarine was determined using a Shimazu fluorimeter RF-5000 with excitation at 380 nm and emission measured at 440 nm. The concentration of the test drug required for 50% inhibition (IC50) was calculated from the inhibiting rate calculated using the value which was measured in a similar manner to the above but without the test drug.
Compound,"IC50 (CANP (μCANP, Calpain I)) [µM]",IC50 (cathepsin B) [nM],IC50 (papain) [µM]
"CCOC(=O)[C@H]1O[C@@H]1C(=O)N[C@H](C(=O)N1CCC[C@H]1C(=O)O)[C@@H](C)CC [Example 5, N-(L-3-trans-ethoxycarbonyl-oxirane-2-carbonyl)-L-isoleucyl-L-proline]",> 200,120,16
"CC[C@H](C)[C@H](NC(=O)[C@H]1O[C@@H]1C(=O)O)C(=O)N1CCC[C@H]1C(=O)OC [Reference Example, N-(L-3-trans-carboxyoxirane-2-carbonyl)-L-isoleucyl-L-proline methyl ester, reference compound]",–,8800,–
